The source of these data is patent US20100184852A1, “ORGANIC COMPOUNDS FOR TREATMENT OF DISORDERS CONNECTED TO IMPAIRED NEUROTRANSMISSION” (priority 2006, published 2010).

Assay [1] deals with T1, human serotonin re-uptake transporter (hSERT) (Homo sapiens, UniProt P31645).
T1 construct: host or cells: HEK-293
The assay is described as follows: Serotonin uptake inhibition in HEK-293 cells expressing hSERT. Format: cell-based. To be noted: transfected HEK-293 cells; 20 nM (3H) serotonin, 30 minutes; average +/− s.e.m.; read-out: IC50 for tritiated serotonin uptake. On the procedure: HEK-293 cells stably expressing the human serotonin re-uptake transporter (hSERT) were obtained from R. Blakely, Vanderbilt University, USA. The cells were routinely grown in Dulbeco's Modified Eagles Medium, purchased from Bioconcept, Allschwil, Switzerland containing 10% fetal calf serum, penicillin, streptomycin, L-glutamine and the antibiotic G418 and passaged by trypsinisation. One day prior to the assay cells were seeded in the above mentioned medium. Immediately prior to the assay the medium was replaced by Krebs Ringers bicarbonate buffer, purchased from Sigma Chemicals Ltd., supplemented with 35 μM pargyline, 2.2 mM CaCl2, 1 mM ascorbic acid and 5 mM N-2-hydroxyethylpiperazine-N′-2-ethanesulfonic acid (buffer called “Hepes”). Serotonin uptake into the cells was determined by addition of radio-labeled (3H) serotonin (Amersham Biosciences GE Healthcare, Slough, UK) to a concentration of 20 nM, and incubation for 30 minutes at room temperature. Following removal of unincorporated label by gentle washing three times with the above buffer, incorporated serotonin was quantified by liquid scintillation counting.
The effect of the compounds of formula I on the serotonin uptake was determined by its inclusion in the assay at a range of concentrations between 0.03 and 100 μM for 10 minutes prior to and during the addition of (3H) serotonin/citalopram. Serotonin uptake via the transporter was inhibited by ligustilide, 3-butylphthalide, senkyunolide A, senkyunolide C, senkyunolide B, and cnidilide, respectively, in a dose dependent manner, with IC50 values as shown in Table 2.

The target in assay [2] is T2, Monoamine oxidase A (MAO-A) (Homo sapiens, UniProt P21397).
T2 sequence (P21397 1-527): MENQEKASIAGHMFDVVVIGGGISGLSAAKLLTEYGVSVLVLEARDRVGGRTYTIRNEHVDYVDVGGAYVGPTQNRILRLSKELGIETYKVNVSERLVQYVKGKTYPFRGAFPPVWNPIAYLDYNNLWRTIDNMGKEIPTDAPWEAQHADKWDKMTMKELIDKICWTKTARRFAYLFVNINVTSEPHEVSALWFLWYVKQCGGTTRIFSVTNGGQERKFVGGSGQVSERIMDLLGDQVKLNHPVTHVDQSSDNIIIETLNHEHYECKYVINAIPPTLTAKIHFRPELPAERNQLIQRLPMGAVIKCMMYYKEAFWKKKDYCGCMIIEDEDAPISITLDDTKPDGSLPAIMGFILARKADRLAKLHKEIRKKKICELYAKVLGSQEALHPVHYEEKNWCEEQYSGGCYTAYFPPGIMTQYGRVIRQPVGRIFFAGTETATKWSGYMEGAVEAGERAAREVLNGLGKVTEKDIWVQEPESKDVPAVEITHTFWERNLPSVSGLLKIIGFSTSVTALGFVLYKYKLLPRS
The assay is described as follows: Monoaminooxidase A inhibition (H2O2/vanillic acid/HRP readout). Format: biochemical. Conditions: substrate p-tyramine 0.5 mM; +/− s.e.m.; read-out: IC50 [μM] for Inhibition of MAO-A. On the procedure:
(§1) The organic amines p-tyramine or benzylamine were used as substrates for the Monoamine oxidase A (MAO-A) and B (MAO-B) enzymes respectively. The H2O2 produced by this reaction was quantified by reaction with vanillic acid, catalysed by horse radish peroxidase (HRP).
(§2) The reactions were carried out in polystyrene microtitre plates. The MAO enzymes (final concentration 2 U/ml) were mixed with either p-tyramine (Sigma, final concentration 0.5 mM) or benzylamine (Sigma, final concentration 0.5 mM) as appropriate and the chromogenic solution (containing vanillic acid (Fluka), 4-aminoantipyrine (Fluka) and horse radish peroxidase (Sigma), final concentrations 0.25 mM, 0.125 mM and 1 U/ml respectively) in 0.2 M potassium phosphate buffer pH 7.6. The reactions were followed in a microtitre plate absorbance reader eg Spectramax M5 (Molecular Devices Corporation). Absorbance readings at 495 nm were taken every 15 seconds for 40 minutes and the initial reaction velocities calculated by linear regression using SOFTmaxPro (Molecular Devices Corporation).
(§3) The effect of ligustilide, 3-butylphthalide, senkyunolide C and cnidilide on the monoamine oxidase enzymes was determined by their inclusion in the assay at a range of concentrations between 0.03 and 100 μM for 10 minutes prior to and during the incubation with substrate. To determine the effect of the compounds on the HRP catalyzed portion of the reaction, the MAO enzyme was replaced by H2O2 (Molecular Probes, final concentration 0.2 mM). The reactions containing MAO-A and MAO-B were both inhibited by […] according to formula I in a dose dependent manner, whilst the control reaction, was unaffected. The measured IC50 values for inhibition of monoamine oxidase activity by ligustilide, 3-butylphthalide, senkyunolide C and enidilide, respectively, are shown in Table 3.

Assay [3] has as its target T3, Monoamine oxidase B (MAO-B) (Homo sapiens, UniProt P27338).
T3 sequence (P27338 1-520): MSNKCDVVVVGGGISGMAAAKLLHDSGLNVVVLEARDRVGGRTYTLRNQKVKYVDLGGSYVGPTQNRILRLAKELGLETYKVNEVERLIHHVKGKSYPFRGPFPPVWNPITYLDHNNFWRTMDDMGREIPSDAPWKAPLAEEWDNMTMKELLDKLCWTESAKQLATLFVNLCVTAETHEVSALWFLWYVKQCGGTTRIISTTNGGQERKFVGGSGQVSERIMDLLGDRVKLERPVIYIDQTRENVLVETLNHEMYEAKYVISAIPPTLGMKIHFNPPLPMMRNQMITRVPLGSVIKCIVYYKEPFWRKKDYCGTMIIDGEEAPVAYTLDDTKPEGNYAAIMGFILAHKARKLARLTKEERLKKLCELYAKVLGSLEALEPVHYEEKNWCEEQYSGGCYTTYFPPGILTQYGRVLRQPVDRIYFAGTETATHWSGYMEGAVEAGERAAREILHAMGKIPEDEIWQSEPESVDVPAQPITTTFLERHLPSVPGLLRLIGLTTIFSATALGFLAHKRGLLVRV
The assay is described as follows: Monoaminooxidase B inhibition (H2O2/vanillic acid/HRP readout). Format: biochemical. Conditions: substrate benzylamine 0.5 mM; +/− s.e.m.; read-out: IC50 [μM] for Inhibition of MAO-B. Here is the method:
as §1, §2, §3

In another assay the test system is mice. The assay is described as follows: Marble burying test. Format: in vivo, mouse. To be noted: 10 mg/kg p.o., −24, −5, −1 h. On the procedure: A celery seed oil extract rich in phthalides was tested in the marble burying test. A crude extract from celery seed oil (Apium graveolens) obtained by supercritical CO2 fluid extraction of the seed was bought from Guanzhou Honsea Sunshine Bio Science & Technology, Guangzhou, 510620, Peopole's Republic of China. This extract (66.15 g) was distilled for about 2 hours in a ca. 30 cm Kugelrohr at a temperature of 125° C., under a pressure of 0.02 mbar. The distillate contained 18.12% butylphthalide, 0.87% butylidenphthalide, 35.37% senkyanolide, 20.99% sedanolide, 2.23% C16-fatty acid and 3.14% oleic acid, based on the total weight of the celery seed oil extract.
The marble burying test was performed in Type II cages (16×22 cm), which were filled with normal rodent bedding material, up to a depth of 4 cm, and the bedding was flattened gently by hand to ensure an even surface. […]
At the start of the test, mice were individually placed into the test cages and left to explore for 30 min. At the end of the test, the mice were removed from the cages and the number of marbles which have been buried (i.e. at least ⅔ covered with bedding) were counted. […]
Celery seed oil extract was evaluated after sub-chronic oral administration at 50, 100, 200, 300 mg/kg with fluoxetine at 10 mg/kg as reference substance and corn oil as vehicle. […]

Bounds are passed on as bounds.

T1 sequence (P31645 whole entry): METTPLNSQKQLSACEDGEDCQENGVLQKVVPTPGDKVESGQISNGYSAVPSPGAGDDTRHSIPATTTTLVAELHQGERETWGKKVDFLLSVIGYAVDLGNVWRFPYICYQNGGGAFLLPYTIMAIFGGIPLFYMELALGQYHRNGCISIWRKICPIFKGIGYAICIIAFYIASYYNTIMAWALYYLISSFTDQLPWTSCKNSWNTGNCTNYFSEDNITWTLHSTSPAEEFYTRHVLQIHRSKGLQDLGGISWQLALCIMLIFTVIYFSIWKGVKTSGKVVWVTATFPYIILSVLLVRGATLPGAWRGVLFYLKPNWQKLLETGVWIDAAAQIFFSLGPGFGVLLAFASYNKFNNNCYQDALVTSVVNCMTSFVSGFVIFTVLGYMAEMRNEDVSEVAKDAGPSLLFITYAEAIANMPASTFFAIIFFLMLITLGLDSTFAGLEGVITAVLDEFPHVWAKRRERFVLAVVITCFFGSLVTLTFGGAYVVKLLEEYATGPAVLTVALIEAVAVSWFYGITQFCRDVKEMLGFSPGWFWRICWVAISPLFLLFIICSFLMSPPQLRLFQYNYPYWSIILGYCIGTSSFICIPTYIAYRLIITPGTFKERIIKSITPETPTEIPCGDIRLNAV

One may read the IC50 as the midpoint of a concentration-inhibition curve. For `CCCC[C@@H]1OC(=O)[C@@H]2C=CCC[C@H]12` [Cnidilide], the IC50 in assay [1] was 40.5 µM; in assay [2], > 100 µM; in assay [3], 109 µM.
Turning to `CNCCC(Oc1ccc(C(F)(F)F)cc1)c1ccccc1` (stereo not drawn) [Fluoxetine], the “% MARBLES BURIED” value in the assay on mice is −78%.
With `CCCC[C@@H]1OC(=O)C2=C1CCC=C2` [Senkyunolide A], the IC50 in assay [1] was 32.5 µM.
As to `CCC/C=C1\OC(=O)c2c(O)cccc21` [Senkyunolide B], in assay [1], the IC50 was 75 µM.
Turning to `CCC/C=C1\OC(=O)c2ccc(O)cc21` [Senkyunolide C], the IC50 in assay [1] was 31.4 µM; in assay [2], 2.72 µM; in assay [3], 2.14 µM.
